According to the supplement of paper PMC10307832:

How the values were obtained:
Test in all cases: relative viability (nuclei count vs DMSO), 5 days (fraction); higher = more cells survive
BEN = system: BEN
Method in brief: (§1)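 Relative viability was taken as the ratio of nuclei in treated wells to nuclei in vehicle wells. Lung cancer cell lines in 1536-well plates received compounds by pin tool one day after seeding, either one drug alone or a fixed anchor-drug dose plus five library-drug doses (not always all listed) in √10 steps. Nuclei were counted on 4× images after 5 days of treatment, and values are medians of duplicate plates.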

EMC-BAC-2 = system: EMC-BAC-2
Method in brief: as §1

H3255 = system: H3255
Method in brief: as §1

HOP-62 = system: HOP-62
Method in brief: as §1

LCLC-97TM1 = system: LCLC-97TM1
Method in brief: as §1

LXF-289 = system: LXF-289
Method in brief: as §1

NCI-H1650 = system: NCI-H1650
Method in brief: as §1

NCI-H1915 = system: NCI-H1915
Method in brief: as §1

NCI-H1993 = system: NCI-H1993
Method in brief: as §1

NCI-H2009 = system: NCI-H2009
Method in brief: as §1

NCI-H2023 = system: NCI-H2023
Method in brief: as §1

NCI-H2085 = system: NCI-H2085
Method in brief: as §1

NCI-H2126 = system: NCI-H2126
Method in brief: as §1

NCI-H2342 = system: NCI-H2342
Method in brief: as §1

NCI-H2347 = system: NCI-H2347
Method in brief: as §1

NCI-H322M = system: NCI-H322M
Method in brief: as §1

NCI-H358 = system: NCI-H358
Method in brief: as §1

NCI-H647 = system: NCI-H647
Method in brief: as §1

NCI-H661 = system: NCI-H661
Method in brief: as §1

NCI-H727 = system: NCI-H727
Method in brief: as §1

PC-14 = system: PC-14
Method in brief: as §1

SK-LU-1 = system: SK-LU-1
Method in brief: as §1

SW 1573 = system: SW 1573
Method in brief: as §1

Question: For C[C@@H]1CN(CC(=O)Nc2ccc3c(c2)Cc2cccc(-c4cc(=O)cc(N5CCOCC5)o4)c2S3)C[C@H](C)O1 + CC(=O)Nc1cccc(-n2c(=O)n(C3CC3)c(=O)c3c(Nc4ccc(I)cc4F)n(C)c(=O)c(C)c32)c1 [Trametinib] (partner 0.02 µM), which relative viability (BEN; first compound 0.04 µM) is on record?
Answer: 0.972

Question: And the relative viability (BEN; first compound 0.1265 µM)?
Answer: 0.99

Question: What about the relative viability (BEN; first compound 0.4 µM) of the same compound?
Answer: 1.14

Question: What about the relative viability (BEN; first compound 4 µM) of the same compound?
Answer: 1.03

Question: What about the relative viability (EMC-BAC-2; first compound 0.04 µM) of the same compound?
Answer: 0.891

Question: And the relative viability (EMC-BAC-2; first compound 0.1265 µM)?
Answer: 0.892

Question: What about the relative viability (EMC-BAC-2; first compound 0.4 µM) of the same compound?
Answer: 0.782

Question: And the relative viability (EMC-BAC-2; first compound 4 µM)?
Answer: 0.688

Question: And the relative viability (H3255; first compound 0.04 µM)?
Answer: 0.584

Question: And the relative viability (H3255; first compound 0.1265 µM)?
Answer: 0.601

Question: What about the relative viability (H3255; first compound 0.4 µM) of the same compound?
Answer: 0.473

Question: And the relative viability (H3255; first compound 4 µM)?
Answer: 0.437

Question: And the relative viability (HOP-62; first compound 0.04 µM)?
Answer: 0.4

Question: And the relative viability (HOP-62; first compound 0.1265 µM)?
Answer: 0.374

Question: And the relative viability (HOP-62; first compound 0.4 µM)?
Answer: 0.297

Question: And the relative viability (HOP-62; first compound 4 µM)?
Answer: 0.313

Question: And the relative viability (LCLC-97TM1; first compound 0.1265 µM)?
Answer: 0.165

Question: And the relative viability (LCLC-97TM1; first compound 0.4 µM)?
Answer: 0.165

Question: What about the relative viability (LCLC-97TM1; first compound 4 µM) of the same compound?
Answer: 0.175

Question: And the relative viability (LXF-289; first compound 0.04 µM)?
Answer: 0.653

Question: And the relative viability (LXF-289; first compound 0.1265 µM)?
Answer: 0.682

Question: What about the relative viability (LXF-289; first compound 0.4 µM) of the same compound?
Answer: 0.658

Question: And the relative viability (LXF-289; first compound 4 µM)?
Answer: 0.676

Question: And the relative viability (NCI-H1650; first compound 0.04 µM)?
Answer: 0.535

Question: What about the relative viability (NCI-H1650; first compound 0.1265 µM) of the same compound?
Answer: 0.548

Question: And the relative viability (NCI-H1650; first compound 0.4 µM)?
Answer: 0.596

Question: What about the relative viability (NCI-H1650; first compound 4 µM) of the same compound?
Answer: 0.286

Question: What about the relative viability (NCI-H1915; first compound 0.04 µM) of the same compound?
Answer: 0.299

Question: And the relative viability (NCI-H1915; first compound 0.1265 µM)?
Answer: 0.291

Question: And the relative viability (NCI-H1915; first compound 0.4 µM)?
Answer: 0.284

Question: And the relative viability (NCI-H1915; first compound 4 µM)?
Answer: 0.294

Question: And the relative viability (NCI-H1993; first compound 0.04 µM)?
Answer: 0.521

Question: What about the relative viability (NCI-H1993; first compound 0.1265 µM) of the same compound?
Answer: 0.565

Question: What about the relative viability (NCI-H1993; first compound 0.4 µM) of the same compound?
Answer: 0.521

Question: And the relative viability (NCI-H1993; first compound 4 µM)?
Answer: 0.478

Question: What about the relative viability (NCI-H2009; first compound 0.04 µM) of the same compound?
Answer: 0.259

Question: What about the relative viability (NCI-H2009; first compound 0.1265 µM) of the same compound?
Answer: 0.261

Question: What about the relative viability (NCI-H2009; first compound 0.4 µM) of the same compound?
Answer: 0.22

Question: And the relative viability (NCI-H2009; first compound 4 µM)?
Answer: 0.197

Question: What about the relative viability (NCI-H2023; first compound 0.04 µM) of the same compound?
Answer: 0.674

Question: What about the relative viability (NCI-H2023; first compound 0.1265 µM) of the same compound?
Answer: 0.507

Question: What about the relative viability (NCI-H2023; first compound 0.4 µM) of the same compound?
Answer: 0.509

Question: What about the relative viability (NCI-H2023; first compound 4 µM) of the same compound?
Answer: 0.311

Question: And the relative viability (NCI-H2085; first compound 0.04 µM)?
Answer: 0.51

Question: What about the relative viability (NCI-H2085; first compound 0.1265 µM) of the same compound?
Answer: 0.532

Question: What about the relative viability (NCI-H2085; first compound 0.4 µM) of the same compound?
Answer: 0.483

Question: And the relative viability (NCI-H2085; first compound 4 µM)?
Answer: 0.465

Question: What about the relative viability (NCI-H2126; first compound 0.04 µM) of the same compound?
Answer: 0.558

Question: And the relative viability (NCI-H2126; first compound 0.1265 µM)?
Answer: 0.573

Question: And the relative viability (NCI-H2126; first compound 0.4 µM)?
Answer: 0.561

Question: And the relative viability (NCI-H2126; first compound 4 µM)?
Answer: 0.557

Question: What about the relative viability (NCI-H2342; first compound 0.04 µM) of the same compound?
Answer: 0.806

Question: What about the relative viability (NCI-H2342; first compound 0.1265 µM) of the same compound?
Answer: 0.743

Question: What about the relative viability (NCI-H2342; first compound 0.4 µM) of the same compound?
Answer: 0.818

Question: And the relative viability (NCI-H2342; first compound 4 µM)?
Answer: 0.721

Question: What about the relative viability (NCI-H2347; first compound 0.04 µM) of the same compound?
Answer: 0.273

Question: And the relative viability (NCI-H2347; first compound 0.1265 µM)?
Answer: 0.331

Question: And the relative viability (NCI-H2347; first compound 0.4 µM)?
Answer: 0.319

Question: And the relative viability (NCI-H2347; first compound 4 µM)?
Answer: 0.238

Question: What about the relative viability (NCI-H322M; first compound 0.04 µM) of the same compound?
Answer: 0.402

Question: And the relative viability (NCI-H322M; first compound 0.1265 µM)?
Answer: 0.535

Question: And the relative viability (NCI-H322M; first compound 0.4 µM)?
Answer: 0.502

Question: What about the relative viability (NCI-H322M; first compound 4 µM) of the same compound?
Answer: 0.501

Question: And the relative viability (NCI-H358; first compound 0.04 µM)?
Answer: 0.131

Question: What about the relative viability (NCI-H358; first compound 0.1265 µM) of the same compound?
Answer: 0.121

Question: What about the relative viability (NCI-H358; first compound 0.4 µM) of the same compound?
Answer: 0.12

Question: What about the relative viability (NCI-H358; first compound 4 µM) of the same compound?
Answer: 0.112

Question: And the relative viability (NCI-H647; first compound 0.04 µM)?
Answer: 0.565

Question: What about the relative viability (NCI-H647; first compound 0.1265 µM) of the same compound?
Answer: 0.415

Question: What about the relative viability (NCI-H647; first compound 0.4 µM) of the same compound?
Answer: 0.414

Question: And the relative viability (NCI-H647; first compound 4 µM)?
Answer: 0.251

Question: What about the relative viability (NCI-H661; first compound 0.04 µM) of the same compound?
Answer: 0.481

Question: And the relative viability (NCI-H661; first compound 0.1265 µM)?
Answer: 0.552

Question: And the relative viability (NCI-H661; first compound 0.4 µM)?
Answer: 0.615

Question: And the relative viability (NCI-H661; first compound 4 µM)?
Answer: 0.507

Question: And the relative viability (NCI-H727; first compound 0.04 µM)?
Answer: 0.386

Question: And the relative viability (NCI-H727; first compound 0.1265 µM)?
Answer: 0.396

Question: And the relative viability (NCI-H727; first compound 0.4 µM)?
Answer: 0.379

Question: And the relative viability (NCI-H727; first compound 4 µM)?
Answer: 0.386

Question: What about the relative viability (PC-14; first compound 0.04 µM) of the same compound?
Answer: 0.872

Question: And the relative viability (PC-14; first compound 0.1265 µM)?
Answer: 0.694

Question: What about the relative viability (PC-14; first compound 0.4 µM) of the same compound?
Answer: 0.719

Question: And the relative viability (PC-14; first compound 4 µM)?
Answer: 0.467

Question: And the relative viability (SK-LU-1; first compound 0.04 µM)?
Answer: 0.518

Question: What about the relative viability (SK-LU-1; first compound 0.1265 µM) of the same compound?
Answer: 0.454

Question: And the relative viability (SK-LU-1; first compound 0.4 µM)?
Answer: 0.477

Question: What about the relative viability (SK-LU-1; first compound 4 µM) of the same compound?
Answer: 0.447

Question: And the relative viability (SW 1573; first compound 0.04 µM)?
Answer: 0.646

Question: And the relative viability (SW 1573; first compound 0.1265 µM)?
Answer: 0.564

Question: And the relative viability (SW 1573; first compound 0.4 µM)?
Answer: 0.572

Question: What about the relative viability (SW 1573; first compound 4 µM) of the same compound?
Answer: 0.627
